How the values were obtained:
Assay in all cases: relative viability (nuclei count vs DMSO), 5 days (fraction); higher = more cells survive
COR-L23 = test system: COR-L23
How it was run: (§1)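 Values are medians from duplicate plates. Each reflects relative viability, defined as the nuclei count of treated wells over that of vehicle wells. Lung cancer cell lines in 1536-well plates were pin-tool dosed one day after seeding with one drug alone or with a fixed anchor-drug dose plus five library-drug doses (not always all listed) in √10 steps, then fixed, stained and imaged at 4× after 5 days.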

SK-MES-1 = test system: SK-MES-1
How it was run: as §1

NCI-H1993 = test system: NCI-H1993
How it was run: as §1

HOP-62 = test system: HOP-62
How it was run: as §1

ABC-1 = test system: ABC-1
How it was run: as §1

NCI-H3122 = test system: NCI-H3122
How it was run: as §1

EMC-BAC-2 = test system: EMC-BAC-2
How it was run: as §1

HARA = test system: HARA
How it was run: as §1

LK-2 = test system: LK-2
How it was run: as §1

NCI-H727 = test system: NCI-H727
How it was run: as §1

NCI-H2228 = test system: NCI-H2228
How it was run: as §1

Compound: COc1cc(N2CCC(C(N)=O)CC2)ccc1Nc1nc(N)c(Cl)c(Nc2ccccc2S(=O)(=O)C(C)C)n1 [HG-5-88-01] + C[C@@H](Oc1cc(-c2cnn(C3CCNCC3)c2)cnc1N)c1c(Cl)ccc(F)c1Cl [Crizotinib] (partner 1 µM)
- relative viability (COR-L23; first compound 0.04 µM): 0.651
- relative viability (COR-L23; first compound 0.1265 µM): 0.588
- relative viability (COR-L23; first compound 0.4 µM): 0.645
- relative viability (COR-L23; first compound 1.265 µM): 0.584
- relative viability (COR-L23; first compound 4 µM): 0.389
- relative viability (SK-MES-1; first compound 0.04 µM): 0.96
- relative viability (SK-MES-1; first compound 0.1265 µM): 0.988
- relative viability (SK-MES-1; first compound 0.4 µM): 1.01
- relative viability (SK-MES-1; first compound 1.265 µM): 0.978
- relative viability (SK-MES-1; first compound 4 µM): 0.923
- relative viability (NCI-H1993; first compound 0.04 µM): 0.988
- relative viability (NCI-H1993; first compound 0.1265 µM): 0.773
- relative viability (NCI-H1993; first compound 0.4 µM): 0.892
- relative viability (NCI-H1993; first compound 1.265 µM): 0.615
- relative viability (NCI-H1993; first compound 4 µM): 0.753
- relative viability (HOP-62; first compound 0.04 µM): 0.894
- relative viability (HOP-62; first compound 0.1265 µM): 1.12
- relative viability (HOP-62; first compound 0.4 µM): 0.83
- relative viability (HOP-62; first compound 1.265 µM): 0.925
- relative viability (HOP-62; first compound 4 µM): 0.96
- relative viability (ABC-1; first compound 0.04 µM): 1.15
- relative viability (ABC-1; first compound 0.1265 µM): 0.939
- relative viability (ABC-1; first compound 0.4 µM): 0.813
- relative viability (ABC-1; first compound 1.265 µM): 0.606
- relative viability (ABC-1; first compound 4 µM): 0.43
- relative viability (NCI-H3122; first compound 0.04 µM): 0.271
- relative viability (NCI-H3122; first compound 0.1265 µM): 0.264
- relative viability (NCI-H3122; first compound 0.4 µM): 0.292
- relative viability (NCI-H3122; first compound 1.265 µM): 0.233
- relative viability (NCI-H3122; first compound 4 µM): 0.173
- relative viability (EMC-BAC-2; first compound 0.04 µM): 0.776
- relative viability (EMC-BAC-2; first compound 0.1265 µM): 0.748
- relative viability (EMC-BAC-2; first compound 0.4 µM): 0.769
- relative viability (EMC-BAC-2; first compound 1.265 µM): 0.77
- relative viability (EMC-BAC-2; first compound 4 µM): 0.667
- relative viability (HARA; first compound 0.04 µM): 1.09
- relative viability (HARA; first compound 0.1265 µM): 0.891
- relative viability (HARA; first compound 0.4 µM): 1.08
- relative viability (HARA; first compound 1.265 µM): 1.08
- relative viability (HARA; first compound 4 µM): 0.695
- relative viability (LK-2; first compound 0.04 µM): 0.24
- relative viability (LK-2; first compound 0.1265 µM): 0.227
- relative viability (LK-2; first compound 0.4 µM): 0.234
- relative viability (LK-2; first compound 1.265 µM): 0.249
- relative viability (LK-2; first compound 4 µM): 0.21
- relative viability (NCI-H727; first compound 0.04 µM): 0.931
- relative viability (NCI-H727; first compound 0.1265 µM): 0.937
- relative viability (NCI-H727; first compound 0.4 µM): 0.827
- relative viability (NCI-H727; first compound 1.265 µM): 0.492
- relative viability (NCI-H727; first compound 4 µM): 0.585
- relative viability (NCI-H2228; first compound 0.04 µM): 0.677
- relative viability (NCI-H2228; first compound 0.1265 µM): 0.464
- relative viability (NCI-H2228; first compound 0.4 µM): 0.454
- relative viability (NCI-H2228; first compound 1.265 µM): 0.427
- relative viability (NCI-H2228; first compound 4 µM): 0.307

From the supplement of paper PMC10307832
